Source: ChEMBL document CHEMBL1201862, “PubChem BioAssay data set” (2004)
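Cultured in 96-well plates, cells were exposed to test compound for 48 hours across five concentrations. GI50 marks 50% less growth.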 Calls of active or inactive are those of the source. No stated cut-off is given here; in the data, active = GI50 up to about 1.1 µM and inactive = higher.

Experiments:
Experiment in all cases: growth of human tumour cells (NCI), 48 h
SF-295 = test system: SF-295
UACC-62 = test system: UACC-62
UACC-257 = test system: UACC-257
SK-MEL-28 = test system: SK-MEL-28
M14 = test system: M14
EKVX = test system: EKVX
SW-620 = test system: SW-620
SF-539 = test system: SF-539
NCI-H522 = test system: NCI-H522
HL-60 = test system: HL-60
HCT-116 = test system: HCT-116
A549 = test system: A549
OVCAR-4 = test system: OVCAR-4
OVCAR-8 = test system: OVCAR-8
HT-29 = test system: HT-29
CCRF-CEM = test system: CCRF-CEM
SN12C = test system: SN12C
RPMI-8226 = test system: RPMI-8226
ACHN = test system: ACHN
OVCAR-5 = test system: OVCAR-5

Measured: GI50

O=C1C(Cl)N(c2ccc(Cl)cc2Cl)C1c1c[nH]c2ccccc12 (centres undefined)
inactive: SF-295 > 100 µM | UACC-62 > 100 µM | UACC-257 > 100 µM | SK-MEL-28 > 100 µM | M14 > 100 µM | EKVX 54 µM | SW-620 > 100 µM | SF-539 > 100 µM | NCI-H522 > 100 µM | HL-60 > 100 µM | HCT-116 91.2 µM | A549 > 100 µM | OVCAR-4 > 100 µM | OVCAR-8 > 100 µM | HT-29 > 100 µM | CCRF-CEM > 100 µM | SN12C > 100 µM | RPMI-8226 > 100 µM

CCOC(=O)C(NC(C)=O)(Nc1ccc(F)cc1)C(F)(F)F (centres undefined)
inactive: SF-295 16.6 µM | UACC-62 18.2 µM | UACC-257 > 100 µM | ACHN 2.62 µM | SK-MEL-28 > 100 µM | M14 20.2 µM | EKVX > 100 µM | SW-620 28.8 µM | SF-539 > 100 µM | NCI-H522 > 100 µM | HL-60 4.79 µM | HCT-116 13.4 µM | A549 39.3 µM | OVCAR-4 88.1 µM | OVCAR-8 > 100 µM | HT-29 > 100 µM | CCRF-CEM > 100 µM | SN12C > 100 µM | RPMI-8226 72.1 µM | OVCAR-5 47 µM

CC(C)(C)C1(c2ccc(C3(c4ccccc4)Oc4ccccc4S3)[nH]2)Oc2ccccc2S1 (centres undefined)
inactive: SF-295 > 100 µM | UACC-62 > 100 µM | UACC-257 92.9 µM | ACHN > 100 µM | M14 > 100 µM | EKVX > 100 µM | SW-620 > 100 µM | SF-539 > 100 µM | NCI-H522 > 100 µM | HL-60 > 100 µM | HCT-116 > 100 µM | A549 > 100 µM | OVCAR-8 > 100 µM | HT-29 > 100 µM | CCRF-CEM > 100 µM | SN12C > 100 µM | RPMI-8226 96.2 µM | OVCAR-5 > 100 µM

Cn1cnc(/C=C/C#N)c1
inactive: SF-295 > 100 µM | UACC-62 > 100 µM | UACC-257 > 100 µM | ACHN > 100 µM | SK-MEL-28 > 100 µM | M14 > 100 µM | EKVX > 100 µM | SW-620 > 100 µM | SF-539 > 100 µM | NCI-H522 > 100 µM | A549 > 100 µM | OVCAR-4 > 100 µM | OVCAR-8 > 100 µM | HT-29 > 100 µM | CCRF-CEM > 100 µM | SN12C > 100 µM | OVCAR-5 > 100 µM

COc1cccc(NC(=O)N/C(=C/c2ccc(N(CCC#N)CCC#N)cc2)NC(=O)c2cc([N+](=O)[O-])ccc2Cl)c1
inactive: SF-295 > 100 µM | UACC-62 89.3 µM | ACHN > 100 µM | SK-MEL-28 64 µM | EKVX > 100 µM | SF-539 > 100 µM | NCI-H522 26.5 µM | HCT-116 > 100 µM | A549 > 100 µM | OVCAR-4 > 100 µM | OVCAR-8 > 100 µM | CCRF-CEM 77.8 µM | SN12C > 100 µM | RPMI-8226 51.6 µM | OVCAR-5 > 100 µM

COc1cc2c(cc1OC)C1Cc3sccc3CN1CC2 (centres undefined)
inactive: SF-295 > 100 µM | UACC-62 > 100 µM | UACC-257 > 100 µM | ACHN > 100 µM | M14 72.4 µM | EKVX > 100 µM | SW-620 > 100 µM | SF-539 > 100 µM | NCI-H522 > 100 µM | HL-60 > 100 µM | HCT-116 > 100 µM | A549 > 100 µM | OVCAR-4 > 100 µM | OVCAR-8 > 100 µM | HT-29 > 100 µM | CCRF-CEM > 100 µM | SN12C > 100 µM | RPMI-8226 > 100 µM | OVCAR-5 > 100 µM

O=c1c(Cc2ccc(Cc3c(O)oc4ccccc4c3=O)cc2)c(O)oc2ccccc12
inactive: SF-295 > 100 µM | UACC-62 > 100 µM | UACC-257 > 100 µM | SK-MEL-28 > 100 µM | M14 > 100 µM | EKVX > 100 µM | SW-620 > 100 µM | SF-539 > 100 µM | HL-60 > 100 µM | HCT-116 > 100 µM | A549 > 100 µM | OVCAR-4 > 100 µM | OVCAR-8 > 100 µM | HT-29 > 100 µM | CCRF-CEM > 100 µM | SN12C > 100 µM | OVCAR-5 > 100 µM

CCOC(=O)/C(=N/Nc1ccc(C)cc1)N1C(=S)N(C)N=C(C)C=C1S
inactive: SF-295 19.1 µM | UACC-62 > 100 µM | UACC-257 > 100 µM | ACHN > 100 µM | SK-MEL-28 > 100 µM | M14 > 100 µM | EKVX > 100 µM | SW-620 > 100 µM | SF-539 > 100 µM | NCI-H522 > 100 µM | HL-60 > 100 µM | HCT-116 > 100 µM | A549 > 100 µM | OVCAR-4 > 100 µM | OVCAR-8 75 µM | HT-29 > 100 µM | CCRF-CEM > 100 µM | SN12C > 100 µM | RPMI-8226 > 100 µM | OVCAR-5 > 100 µM
